Blank lines part the entries; values can stand above or below the molecule they belong to. Bridge positions count the residues as written; N and C are the ends. Peptide text beside a SMILES is read from it.
Legend:
HCT116^+/+ = assay: MTT cell viability, HCT116 p53 wild-type cells; assay type: cell-based, human; details: Homo sapiens, HCT-116
Procedure: (§1) Cell viability assay in several human cancer cell lines (See Tables 1 to 10). Cell lines were cultured in RPMI 1640 (or recommended medium when indicated) medium supplemented with 10% fetal calf serum, penicillin (50 IU/mL) and streptomycin ([…]) at 37° C. in 5% CO2. Cell viability studies was carried using the MTT (3-(4,5-dimethylthiazol-2-yl)-2,5-diphenyltetrazolium bromide) assay as previously described (31). Briefly, ≈2×10^3 CRC cells were be seeded in 96-well microtiter plates in 100 μL RPMI 1640 in the presence of 10% calf serum. […] After 1 h, 210 μL/well of full complemented media was added, the cells were grown for 48 h and then treated with 20 μL of a solution of MTT (5 mg/mL) for 2 h. The medium was discarded and DMSO ([…]) was added to each well and incubated with gentle shaking for 20 min at room temperature. The absorbance at 595 nm of the solution is analyzed using a Tecan Genios Multifunctional Microplate Reader (Tecan System Inc) and the background at 670 nm subtracted. RNA-Seq analysis was performed using state-of-the-art bioinformatics tools. Briefly, raw RNA-Seq reads were mapped to human genome (hg38) using STAR aligner (v2.7.3a). Gencode Release 36 reference was used for annotation. Transcript and gene expression levels were quantified using the IsoEM (37) with default parameters. Counts per million (CPM) method is used for normalization. Differential expression was done using DESeq2 with default parameters. Genes involved in different biological pathways (human) were searched from Geneontology (http://geneontology.org/). Bioinformatics results can be validated by using Partek Flow (v10.0.21.0912), a bioinformatics pipeline developed by Zymo Research (https://www.zymoresearch.com/).
(§2) Cell viability was evaluated using the MTT assay as described above.

HCT116^−/− = assay: MTT cell viability, HCT116 p53-null cells; assay type: cell-based, human; details: Homo sapiens, HCT-116
Procedure: as §1, with “Counts per million (CPM) method is used for normalization. Differential expression was done using DESeq2 with default parameters. Genes involved in different biological pathways (human) were searched from Geneontology (http://geneontology.org/). Bioinformatics results can be validated by using Partek Flow (v10.0.21.0912), a bioinformatics pipeline developed by Zymo Research (https://www.zymoresearch.com/).” left out
as §2

Caco-2 = assay: MTT cell viability, Caco-2 cells; assay type: cell-based, human; details: Homo sapiens, Caco-2 colon adenocarcinoma, p53 Mutant
Procedure: as §1, §2

SW480 = assay: MTT cell viability, SW480 cells; assay type: cell-based, human; details: Homo sapiens, SW480 colon adenocarcinoma, p53 Mutant
Procedure: as §1, §2

MSCLC 494 = assay: MTT cell viability, MSCLC 494 cells; assay type: cell-based; details: Mus musculus, MSCLC 494 murine small cell lung cancer
Procedure: as §1, §2

Jurkat = assay: MTT cell viability, Jurkat cells; assay type: cell-based, human; details: Homo sapiens, Jurkat childhood T acute lymphoblastic leukemia, p53 Mutant
Procedure: as §1, §2

U937 = assay: MTT cell viability, U937 cells; assay type: cell-based, human; details: Homo sapiens, U-937, U937 adult acute monocytic leukemia, p53 Mutant
Procedure: as §1, §2

MOLM-13 = assay: MTT cell viability, MOLM-13 cells; assay type: cell-based, human; details: Homo sapiens, MOLM-13 adult acute myeloid leukemia, p53 WT
Procedure: as §1, §2

MV4-11 = assay: MTT cell viability, MV4-11 cells; assay type: cell-based, human; details: Homo sapiens, MV4-11 childhood acute monocytic leukemia, p53 WT
Procedure: as §1, §2

NCl-A549 = assay: MTT cell viability, NCl-A549 cells; assay type: cell-based, human; details: Homo sapiens, NCl-A549 lung adenocarcinoma, p53 WT
Procedure: as §1, §2

NCl-H23 = assay: MTT cell viability, NCl-H23 cells; assay type: cell-based, human; details: Homo sapiens, NCl-H23 lung adenocarcinoma, p53 Mutant
Procedure: as §1, §2

NCl-H522 = assay: MTT cell viability, NCl-H522 cells; assay type: cell-based, human; details: Homo sapiens, NCl-H522 lung adenocarcinoma, p53 Mutant (Deletion)
Procedure: as §1, §2

NCl-H1299 = assay: MTT cell viability, NCl-H1299 cells; assay type: cell-based, human; details: Homo sapiens, NCl-H1299 lung large cell carcinoma, p53 Null
Procedure: as §1, §2

NCl-H69 = assay: MTT cell viability, NCl-H69 cells; assay type: cell-based, human; details: Homo sapiens, NCl-H69 lung small cell carcinoma, p53 Mutant
Procedure: as §1, §2

NCl-H526 = assay: MTT cell viability, NCl-H526 cells; assay type: cell-based, human; details: Homo sapiens, NCl-H526 lung small cell carcinoma, p53 Null
Procedure: as §1, §2

BxPC-3 = assay: MTT cell viability, BxPC-3 cells; assay type: cell-based, human; details: BxPC-3 pancreatic ductal adenocarcinoma, p53 Mutant
Procedure: as §1, §2

MIA PaCa-2 = assay: MTT cell viability, MIA PaCa-2 cells; assay type: cell-based, human; details: MIA PaCa-2 pancreatic ductal adenocarcinoma, p53 Mutant
Procedure: as §1, §2

PANC-1 = assay: MTT cell viability, PANC-1 cells; assay type: cell-based, human; details: PANC-1 pancreatic ductal adenocarcinoma, p53 Mutant
Procedure: as §1, §2

HPAF-II = assay: MTT cell viability, HPAF-II cells; assay type: cell-based, human; details: HPAF-II pancreatic ductal adenocarcinoma, p53 Mutant
Procedure: as §1, §2

CFPAC-1 = assay: MTT cell viability, CFPAC-1 cells; assay type: cell-based, human; details: CFPAC-1 pancreatic ductal adenocarcinoma, p53 Mutant
Procedure: as §1, §2

SW626 = assay: MTT cell viability, SW626 cells; assay type: cell-based, human; details: SW626 ovarian cells, p53 Mutant; MTT (Table 7); read-out: Cell Viability Assay
Procedure: as §1, §2

A2780 = assay: MTT cell viability, A2780 ovarian cells; assay type: cell-based, human; details: p53 WT
Procedure: (§3) Cell viability assay in several human cancer cell lines (See Tables 1 to 10). Cell lines were cultured in RPMI 1640 (or recommended medium when indicated) medium supplemented with 10% fetal calf serum, penicillin (50 IU/mL) and streptomycin ([…]) at 37° C. in 5% CO2. Cell viability studies was carried using the MTT (3-(4,5-dimethylthiazol-2-yl)-2,5-diphenyltetrazolium bromide) assay as previously described (31). Briefly, ≈2×10^3 CRC cells were be seeded in 96-well microtiter plates in 100 μL RPMI 1640 in the presence of 10% calf serum. After 24 h incubation the cells were washed with PBS and treated with 30 μL/well of PBS or RPMI 1640 (or recommended) media containing cyclotides MCo-52, MCoTI-I (used as negative control), nutlin-3a (used as positive control) or MI-77301 (used as positive control for p53-mutated or p53-null cells) at the indicated doses for 1 h at 37° C. in 5% CO2. After 1 h, 210 μL/well of full complemented media was added, the cells were grown for 48 h and then treated with 20 μL of a solution of MTT (5 mg/mL) for 2 h. The medium was discarded and DMSO ([…]) was added to each well and incubated with gentle shaking for 20 min at room temperature. The absorbance at 595 nm of the solution is analyzed using a Tecan Genios Multifunctional Microplate Reader (Tecan System Inc) and the background at 670 nm subtracted. RNA-Seq analysis was performed using state-of-the-art bioinformatics tools. Briefly, raw RNA-Seq reads were mapped to human genome (hg38) using STAR aligner (v2.7.3a). Gencode Release 36 reference was used for annotation. Transcript and gene expression levels were quantified using the IsoEM (37) with default parameters. Counts per million (CPM) method is used for normalization. Differential expression was done using DESeq2 with default parameters. Genes involved in different biological pathways (human) were searched from Geneontology (http://geneontology.org/). Bioinformatics results can be validated by using Partek Flow (v10.0.21.0912), a bioinformatics pipeline developed by Zymo Research (https://www.zymoresearch.com/).
(§4) Tables 1 through 10 show in vitro activity of cyclotide MCo-52-2-cTAT against different human cancer cell lines, some with null-, mutated, or wildtype p53 phenotypes. Cell viability was evaluated using the MTT assay as described above.

NIHOVCAR3 = assay: MTT cell viability, NIHOVCAR3 ovarian cells; assay type: cell-based, human; details: p53 Mutant
Procedure: as §3, §4

SKOV 3 = assay: MTT cell viability, SKOV 3 ovarian cells; assay type: cell-based, human; details: p53 Mutant
Procedure: as §3, §4

ES-2 = assay: MTT cell viability, ES-2 ovarian cells; assay type: cell-based, human; details: p53 Mutant
Procedure: as §3, §4

Capan-1 = assay: MTT cell viability, Capan-1 cells; assay type: cell-based, human; details: Capan-1 pancreatic ductal adenocarcinoma, p53 Mutant
Procedure: as §1, §2

AsPC-1 = assay: MTT cell viability, AsPC-1 cells; assay type: cell-based, human; details: AsPC-1 pancreatic ductal adenocarcinoma, p53 Mutant
Procedure: as §1, §2

SW1990 = assay: MTT cell viability, SW1990 cells; assay type: cell-based, human; details: SW1990 pancreatic adenocarcinoma, p53 Mutant (Deletion)
Procedure: as §1, §2

LNCaP = assay: MTT cell viability, LNCaP cells; assay type: cell-based; details: LNCaP prostate carcinoma, p53 WT, read-out: Cell viability, Human Prostate Cancer Cells
Procedure: as §3, §4

DU145 = assay: MTT cell viability, DU145 cells; assay type: cell-based; details: DU145 prostate carcinoma, p53 Mutant, read-out: Cell viability, Human Prostate Cancer Cells
Procedure: as §3, §4

PC-3 = assay: MTT cell viability, PC-3 cells; assay type: cell-based; details: PC-3 prostate carcinoma, p53 Mutant, read-out: Cell viability, Human Prostate Cancer Cells
Procedure: as §3, §4

EC50 (HCT116^+/+): 2.7 ± 0.2 µM
EC50 (HCT116^−/−): 23.7 ± 1.9 µM
EC50 (Caco-2): > 50 µM
EC50 (SW480): 26.1 ± 3.3 µM
EC50 (Jurkat): 12.1 ± 1.6 µM
EC50 (U937): 9.6 ± 2.2 µM
EC50 (MOLM-13): 0.7 ± 0.1 µM
EC50 (MV4-11): 0.3 ± 0.03 µM
EC50 (NCl-A549): 15.8 ± 2.2 µM
EC50 (NCl-H522): 22.7 ± 2.8 µM
EC50 (NCl-H1299): 21.5 ± 2.5 µM
EC50 (NCl-H526): 9.7 ± 1.8 µM
EC50 (BxPC-3; Homo sapiens): 17.3 ± 2.3 µM
EC50 (MIA PaCa-2; Homo sapiens): 10.5 ± 1.6 µM
EC50 (PANC-1; Homo sapiens): 12.7 ± 1.6 µM
SMILES: CC(C)(C)C[C@@H]1N[C@@H](C(=O)N[C@H]2CC[C@H](O)CC2)[C@H](c2cccc(Cl)c2F)[C@]12C(=O)Nc1cc(Cl)ccc12 [MI-77301]
EC50 (MSCLC 494): 15.8 ± 2.2 µM
EC50 (NCl-H23): 10.7 ± 1.9 µM
EC50 (NCl-H69): 31.7 ± 5.2 µM
EC50 (HPAF-II; Homo sapiens): 6.7 ± 1 µM
EC50 (CFPAC-1; Homo sapiens): 22.1 ± 1.6 µM

SMILES: CC[C@H](C)[C@@H]1NC(=O)[C@@H]2CSSC[C@@H]3NC(=O)[C@H](C(C)C)NC(=O)CNC(=O)CNC(=O)[C@H](CC(=O)O)NC(=O)[C@H](CO)NC(=O)CNC(=O)[C@H](CO)NC(=O)CNC(=O)[C@@H]4CSSC[C@H](NC(=O)[C@H](CC(=O)O)NC(=O)[C@H](CO)NC(=O)[C@H](CC(=O)O)NC(=O)[C@H](CCCNC(=N)N)NC(=O)[C@H](CCCNC(=N)N)NC(=O)[C@H](CSSC[C@H](NC1=O)C(=O)N[C@@H](CCCNC(=N)N)C(=O)N[C@@H](Cc1c[nH]cn1)C(=O)N[C@@H](CC(=O)O)C(=O)N[C@@H](CO)C(=O)N[C@@H](Cc1ccc(O)cc1)C(=O)N4)NC(=O)[C@H](CC(C)C)NC(=O)[C@H](CC(C)C)NC(=O)[C@H](Cc1ccc(O)cc1)NC(=O)[C@H](CC(C)C)NC(=O)[C@H](CC(N)=O)NC(=O)[C@@H]1CCCN1C3=O)C(=O)N1CCC[C@H]1C(=O)NCC(=O)N[C@@H](C)C(=O)N2 [Cyclotide 52-2] (cyclo(ACICRHDSYCGSGSDGGVCPNLYLLCRRDSDCPG); disulfide 2-19, 4-26, 10-32)
EC50 (SW626): > 100 µM
EC50 (A2780): > 100 µM
EC50 (NIHOVCAR3): > 100 µM
EC50 (SKOV 3): > 100 µM
EC50 (ES-2): > 100 µM
EC50 (Capan-1): > 100 µM
EC50 (AsPC-1): > 100 µM
EC50 (SW1990): > 100 µM
EC50 (BxPC-3): > 100 µM
EC50 (MIA PaCa-2): > 100 µM
EC50 (PANC-1): > 100 µM
EC50 (HPAF-II): > 100 µM
EC50 (CFPAC-1): > 100 µM
EC50 (LNCaP): > 100 µM
EC50 (DU145): > 100 µM
EC50 (PC-3): > 100 µM
